In the supplement of paper PMC13380429:

Tests used:
Conditions in all cases: 72 h
Vero E6 [1] = assay: drug sensitivity score (DSS) for viability; higher = more toxic; extreme values may be limits of the assay
HepG2 [2] = assay: as above
Caco-2 [3] = assay: as above
Calu-3 [4] = assay: as above
U2OS [5] = assay: as above
Vero E6 [6] = assay: cell viability relative to DMSO; higher = less toxic
HepG2 [7] = assay: as above
Caco-2 [8] = assay: as above
Calu-3 [9] = assay: as above
U2OS [10] = assay: as above
Vero E6 [11] = assay: relative viability EC50 (midpoint between 100% and the lowest measured viability); higher = less toxic
HepG2 [12] = assay: as above
Caco-2 [13] = assay: as above
Calu-3 [14] = assay: as above
U2OS [15] = assay: as above

| Compound | drug sensitivity score (Vero E6 [1]) | drug sensitivity score (HepG2 [2]) | drug sensitivity score (Caco-2 [3]) | drug sensitivity score (Calu-3 [4]) | drug sensitivity score (U2OS [5]) | cell viability (Vero E6 [6]; 1 nM) [%] | cell viability (Vero E6 [6]; 10 nM) [%] | cell viability (Vero E6 [6]; 100 nM) [%] | cell viability (Vero E6 [6]; 1000 nM) [%] | cell viability (Vero E6 [6]; 10000 nM) [%] | cell viability (HepG2 [7]; 1 nM) [%] | cell viability (HepG2 [7]; 10 nM) [%] | cell viability (HepG2 [7]; 100 nM) [%] | cell viability (HepG2 [7]; 1000 nM) [%] | cell viability (HepG2 [7]; 10000 nM) [%] | cell viability (Caco-2 [8]; 1 nM) [%] | cell viability (Caco-2 [8]; 10 nM) [%] | cell viability (Caco-2 [8]; 100 nM) [%] | cell viability (Caco-2 [8]; 1000 nM) [%] | cell viability (Caco-2 [8]; 10000 nM) [%] | cell viability (Calu-3 [9]; 1 nM) [%] | cell viability (Calu-3 [9]; 10 nM) [%] | cell viability (Calu-3 [9]; 100 nM) [%] | cell viability (Calu-3 [9]; 1000 nM) [%] | cell viability (Calu-3 [9]; 10000 nM) [%] | cell viability (U2OS [10]; 1 nM) [%] | cell viability (U2OS [10]; 10 nM) [%] | cell viability (U2OS [10]; 100 nM) [%] | cell viability (U2OS [10]; 1000 nM) [%] | cell viability (U2OS [10]; 10000 nM) [%] | relative viability EC50 (Vero E6 [11]) [µM] | relative viability EC50 (HepG2 [12]) [µM] | relative viability EC50 (Caco-2 [13]) [µM] | relative viability EC50 (Calu-3 [14]) [µM] | relative viability EC50 (U2OS [15]) [µM] |
| --- | --- | --- | --- | --- | --- | --- | --- | --- | --- | --- | --- | --- | --- | --- | --- | --- | --- | --- | --- | --- | --- | --- | --- | --- | --- | --- | --- | --- | --- | --- | --- | --- | --- | --- | --- |
| Cc1c(N)c(=O)n(-c2ccccc2)n1C [ampyrone] | 0 | 0 | 0 | 0 | 0 | 101 | 104 | 99.2 | 95.4 | 90.5 | 96.5 | 110 | 105 | 111 | 106 | 103 | 92 | 100 | 96.7 | 95 | 138 | 99.9 | 98.6 | 96.4 | 98.6 | 97.6 | 94.3 | 100 | 95.8 | 102 | > 10 | > 10 | > 10 | > 10 | > 10 |
| CO[C@@]1(NC(=O)C(C(=O)O)c2ccc(O)cc2)C(=O)N2C(C(=O)O)=C(CSc3nnnn3C)CO[C@@H]21 (stereo not given in full) [moxalactam] | 0 | 0 | 0 | 0 | 0 | 98.1 | 97.5 | 98.1 | 92.7 | 100 | 102 | 95.2 | 117 | 84.9 | 117 | 92.6 | 99.7 | 96.7 | 95.9 | 105 | 93.2 | 100 | 92.1 | 105 | 98 | 94.8 | 98.2 | 96.1 | 103 | 104 | > 10 | > 10 | > 10 | > 10 | > 10 |
| COC(=O)c1ccc2c(c1)nc(NC(=O)c1ccccc1)n2CCCc1ccccc1 [BRD4770] | 0 | 1.6 | 1 | 0 | 0.1 | 103 | 97.4 | 98 | 96.6 | 90.1 | 109 | 97.2 | 99.9 | 94.3 | 77 | 98 | 103 | 94.1 | 91.9 | 80 | 107 | 96.6 | 97.4 | 93.6 | 95.5 | 97.9 | 98.6 | 98.2 | 99.3 | 88.3 | > 10 | > 10 | > 10 | > 10 | > 10 |
| CC(Cc1ccccc1)(NC(=O)CN)c1ccccc1 (stereo not given) [remacemide] | 0 | 0 | 0 | 0 | 0 | 99.7 | 101 | 102 | 96.2 | 99.3 | 99.4 | 96.1 | 100 | 94.3 | 104 | 99.6 | 92.8 | 100 | 91.5 | 102 | 102 | 93.6 | 92.5 | 98.6 | 90.8 | 98.6 | 94.7 | 99.6 | 93.6 | 94 | > 10 | > 10 | > 10 | > 10 | > 10 |
| O=C(NCc1ccc(Oc2ccccc2)cc1)c1nc(-c2cc(Br)c(O)c(Br)c2)no1 [IOWH032] | 0.8 | 0.8 | 1.4 | 0 | 0 | 102 | 106 | 104 | 98.2 | 79.9 | 91.3 | 102 | 86.7 | 101 | 76.1 | 104 | 100 | 99.1 | 88.4 | 81 | 101 | 102 | 95.9 | 100 | 88.7 | 96.7 | 98.5 | 96.4 | 94.5 | 92.3 | > 10 | > 10 | > 10 | > 10 | > 10 |
| FC(F)(F)c1ccc(N2CCNCC2)nc1Cl | 0 | 0 | 0 | 0 | 0 | 101 | 98 | 95.9 | 95.6 | 95.2 | 108 | 96.2 | 92 | 106 | 104 | 101 | 98.5 | 107 | 104 | 96.4 | 96.1 | 105 | 93.7 | 106 | 107 | 97.4 | 99.9 | 95.2 | 100 | 92.7 | > 10 | > 10 | > 10 | > 10 | > 10 |
| O=C(c1ccccc1)c1ccc2n1CCC2C(=O)O (stereo not given) [ketorolac] | 0 | 0.2 | 0 | 0 | 0 | 102 | 104 | 108 | 105 | 96.1 | 102 | 107 | 113 | 97.7 | 87.2 | 103 | 123 | 110 | 98.3 | 91.8 | 95.7 | 109 | 110 | 99.5 | 104 | 99.5 | 105 | 104 | 96.6 | 92.9 | > 10 | > 10 | > 10 | > 10 | > 10 |
| O=c1c(-c2ccc(O)cc2)coc2cc(O)cc(O)c12 [genistein] | 0 | 0.3 | 0 | 0.3 | 0 | 102 | 108 | 108 | 96.1 | 97.2 | 95.2 | 89.9 | 95.9 | 102 | 82.6 | 102 | 96.6 | 105 | 97 | 90.3 | 96.4 | 91.5 | 98.1 | 103 | 82.9 | 93.9 | 98.8 | 87.1 | 87 | 95.4 | > 10 | > 10 | > 10 | > 10 | > 10 |
| O=C(O)C[C@H]1CC[C@H](c2ccc(NC(=O)c3nnc(Nc4ccc(F)c(F)c4)o3)cc2)CC1 [AZD3988] | 0 | 0 | 0 | 0 | 0 | 97.9 | 97.4 | 95.2 | 95.3 | 101 | 110 | 105 | 103 | 93 | 102 | 99 | 104 | 96.6 | 100 | 87.9 | 104 | 104 | 97.6 | 108 | 100 | 99.7 | 98.8 | 97.2 | 103 | 94.7 | > 10 | > 10 | > 10 | > 10 | > 10 |
| CNCC(=O)O [sarcosine] | 0 | 0 | 0 | 0 | 0 | 93.4 | 97.8 | 90.4 | 103 | 112 | 112 | 110 | 88.4 | 106 | 107 | 93.3 | 93.4 | 95.5 | 102 | 110 | 92.9 | 98.5 | 96.7 | 89.6 | 97.7 | 96.1 | 99.2 | 99.1 | 96 | 107 | > 10 | > 10 | > 10 | > 10 | > 10 |
| CC(C)[N+](C)(CCC(C(N)=O)(c1ccccc1)c1ccccc1)C(C)C [isopropamide-iodide] | 0 | 0 | 0 | 0 | 0 | 102 | 104 | 101 | 99.4 | 98.6 | 98.1 | 108 | 93.5 | 100 | 102 | 102 | 94.2 | 98.1 | 93.9 | 101 | 97.2 | 90.1 | 96.2 | 94.1 | 87.1 | 104 | 99.8 | 103 | 98.4 | 100 | > 10 | > 10 | > 10 | > 10 | > 10 |
| CCN(CC)CCOC(=O)c1ccc(N)cc1 [procaine] | 0 | 0 | 0 | 0 | 0 | 104 | 99.4 | 99.3 | 103 | 98.5 | 108 | 94.9 | 100 | 97.7 | 98.9 | 92.8 | 92.7 | 96.6 | 97 | 97.3 | 100 | 93.3 | 92 | 97 | 98.3 | 100 | 95.2 | 97.9 | 94.2 | 102 | > 10 | > 10 | > 10 | > 10 | > 10 |
| Nc1cccc2c(=O)[nH][nH]c(=O)c12 [monosodium-alpha-luminol] | 0 | 0 | 0 | 0 | 0 | 102 | 92.7 | 96.1 | 95.2 | 106 | 95.9 | 89.7 | 104 | 89.8 | 113 | 93 | 88.6 | 90.3 | 92.7 | 97.7 | 98.5 | 100 | 97.4 | 105 | 105 | 98 | 102 | 95.4 | 102 | 103 | > 10 | > 10 | > 10 | > 10 | > 10 |
| O=C(O)[C@H]1CN(CCCP(=O)(O)O)CCN1 [CPP] | 0 | 0 | 0 | 0.2 | 0 | 99.2 | 103 | 99.8 | 102 | 102 | 96.6 | 112 | 98.6 | 103 | 104 | 97 | 101 | 103 | 101 | 94.5 | 102 | 104 | 92.6 | 89.4 | 90.5 | 103 | 106 | 101 | 101 | 99.8 | > 10 | > 10 | > 10 | > 10 | > 10 |
